Experimental data reported in US20080287653A1, “METHOD FOR PRODUCING INHIBITORS AND INHIBITORS FORMED THEREFROM” (THE UNIVERSITY OF AKRON, priority 2007, published 2008).
Marks after values point to notes of the source that are not given here. Non-standard residues stand in square brackets, D forms with d. Residues, ends and D or L forms follow the SMILES beside them. Lys(Thioacetyl) = CC(=S)NCCCC[C@H](N)C(=O)O

Legend:
[1] = biological target: T1, SIRT1 (Homo sapiens, UniProt Q96EB6); experiment: HPLC-based SIRT1 inhibition assay with purified GST-SIRT1; assay type: biochemical
T1 construct: made in house
T1 sequence (Q96EB6 1-747): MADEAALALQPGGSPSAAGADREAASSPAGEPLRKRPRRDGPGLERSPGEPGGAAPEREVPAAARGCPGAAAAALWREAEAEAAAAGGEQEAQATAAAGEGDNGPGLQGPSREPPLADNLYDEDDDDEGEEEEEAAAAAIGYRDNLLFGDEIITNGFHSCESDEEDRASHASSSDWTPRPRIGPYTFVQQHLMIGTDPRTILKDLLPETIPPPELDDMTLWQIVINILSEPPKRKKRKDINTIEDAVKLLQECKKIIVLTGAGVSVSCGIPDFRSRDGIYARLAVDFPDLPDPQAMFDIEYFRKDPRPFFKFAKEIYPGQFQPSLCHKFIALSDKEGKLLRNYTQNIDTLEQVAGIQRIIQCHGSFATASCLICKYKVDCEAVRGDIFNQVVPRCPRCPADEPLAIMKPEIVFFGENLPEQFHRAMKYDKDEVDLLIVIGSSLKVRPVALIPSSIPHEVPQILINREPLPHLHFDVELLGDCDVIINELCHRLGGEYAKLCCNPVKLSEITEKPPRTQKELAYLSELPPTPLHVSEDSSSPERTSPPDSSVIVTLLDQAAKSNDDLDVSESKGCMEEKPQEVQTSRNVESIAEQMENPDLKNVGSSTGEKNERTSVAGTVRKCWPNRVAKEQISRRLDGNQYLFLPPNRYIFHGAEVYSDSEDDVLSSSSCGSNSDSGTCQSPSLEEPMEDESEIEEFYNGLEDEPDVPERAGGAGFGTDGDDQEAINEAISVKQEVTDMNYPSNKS
Protocol: Inhibition assays with purified SIRT1, SIRT2, and SIRT3. GST-SIRT1 that could be produced in a laboratory was used for the SIRT1 inhibition assay. SIRT2 and SIRT3 are obtainable from commercial sources known to those skilled in the art. Consistent HPLC-based assay procedures were used for the inhibition assays with SIRT1, SIRT2, and SIRT3. […] An enzymatic reaction was initiated by the addition of an enzyme at 37° C. and was allowed to be incubated at 37° C.: 10 minutes as follows: for SIRT1 assay, or 60 minutes for SIRT2 and SIRT3 assays. Incubation was quenched at the indicated time with the following stop solution: 100 mM HCl and 0.16 M acetic acid. […] All peptide stock solutions were prepared in ddH2O. IC50 values were estimated from Dixon plots (1/v0 vs. [inhibitor]) as an indication of the inhibition potency.

[2] = biological target: T2, SIRT2 (Homo sapiens, UniProt Q8IXJ6); experiment: HPLC-based SIRT2 inhibition assay with purified SIRT2; assay type: biochemical; conditions: SIRT2 vs SIRT1
T2 construct: purchased
T2 sequence (Q8IXJ6 1-389): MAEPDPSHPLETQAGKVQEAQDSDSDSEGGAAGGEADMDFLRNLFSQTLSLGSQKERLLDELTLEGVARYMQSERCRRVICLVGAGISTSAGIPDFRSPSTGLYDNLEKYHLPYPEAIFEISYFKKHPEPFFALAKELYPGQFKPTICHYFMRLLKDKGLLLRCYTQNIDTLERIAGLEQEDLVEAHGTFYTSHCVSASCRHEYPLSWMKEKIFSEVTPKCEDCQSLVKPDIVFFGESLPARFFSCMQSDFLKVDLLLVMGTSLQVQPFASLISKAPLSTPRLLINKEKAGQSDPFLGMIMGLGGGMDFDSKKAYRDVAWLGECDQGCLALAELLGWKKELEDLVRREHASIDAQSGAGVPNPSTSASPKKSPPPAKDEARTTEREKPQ
Protocol: (§1) Inhibition assays with purified SIRT1, SIRT2, and SIRT3. GST-SIRT1 that could be produced in a laboratory was used for the SIRT1 inhibition assay. SIRT2 and SIRT3 are obtainable from commercial sources known to those skilled in the art. Consistent HPLC-based assay procedures were used for the inhibition assays with SIRT1, SIRT2, and SIRT3. In brief, an inhibition assay solution had the following components: 25 mM (or 50 mM for SIRT2 assay) Tris.HCl (pH 8.0) 137 mM NaCl, 2.7 mM KCl, 1 mM MgCl2, 1 mg/mL BSA (SIGMA Cat. #A3803 with reduced fatty acid content, for SIRT2 assay only), 0.5 mM β-NAD^+, 0.3 mM peptide substrate (peptide 1b for SIRT1 and SIRT2 assays; peptide 3b for SIRT3 assay), an inhibitor (peptide 1a, 2, or 3a) with varied concentrations including 0, and an enzyme (GST-SIRT1, 0.15 μM; SIRT2, 0.3 μM; or SIRT3, 2.0 μM). […] An enzymatic reaction was initiated by the addition of an enzyme at 37° C. and was allowed to be incubated at 37° C.: 10 minutes as follows: for SIRT1 assay, or 60 minutes for SIRT2 and SIRT3 assays. […] The enzymatic deacetylation products (peptide 1c in SIRT1 and SIRT2 assays; peptide 3c in SIRT3 assay) were confirmed by their comigration with the chemically synthesized authentic samples and by MALDI-TOF mass spectrometric analysis, and were quantified by HPLC peak integration and comparison with those of synthetic authentic samples. […]

[3] = biological target: T3, HDAC8 (Homo sapiens, UniProt Q9BY41); conditions: inventors' earlier work, Fatkins et al.; cited from earlier work
T3 construct: purchased
T3 sequence (Q9BY41 1-377): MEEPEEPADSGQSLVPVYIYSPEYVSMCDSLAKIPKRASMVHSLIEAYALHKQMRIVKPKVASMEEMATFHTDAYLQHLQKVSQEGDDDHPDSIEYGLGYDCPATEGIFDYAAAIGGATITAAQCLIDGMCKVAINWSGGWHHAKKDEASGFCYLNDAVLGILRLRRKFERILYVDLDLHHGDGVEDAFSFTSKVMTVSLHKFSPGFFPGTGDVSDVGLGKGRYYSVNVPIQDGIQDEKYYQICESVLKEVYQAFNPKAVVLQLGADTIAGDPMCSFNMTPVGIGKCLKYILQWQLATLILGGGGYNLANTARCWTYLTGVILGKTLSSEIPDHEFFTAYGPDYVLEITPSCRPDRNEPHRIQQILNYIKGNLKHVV

[4] = biological target: T3, HDAC8; experiment: HPLC-based assay with purified HDAC8 (de(thio)acetylation of peptides); assay type: biochemical; parameters: key to HDAC8 (sensitive / resistant to HDAC8): +: Sensitive to HDAC8; —: Resistant to HDAC8; conditions: enzymatic dethioacetylation by HDAC8
Protocol: To test the foregoing premise, peptides 1b, 2, and 3a were allowed to be incubated for 2 hours at room temperature in the HDAC8 assay buffer in a HPLC-based HDAC8 assay. […] FIG. 5 provides representative HPLC chromatograms from HDAC8 assays with peptides 1b, 2, and 3a. All assays were performed in duplicate and essentially the same HPLC chromatograms were obtained for the duplicates. The small peak with tR˜27 minutes in the second chromatogram was from a minor impurity in the purified peptide 2 sample, rather than the dethioacetylated product. The lack of detectable dethioacetylation of peptide 3a was apparent from the absence of a peak with tR˜34 minutes, shown for peptide 3c in the third chromatogram.
Assay with purified HDAC8. The purified HDAC8 could be obtained from a commercial source for use with a HPLC-based HDAC8 assay. In brief, a HDAC8 assay solution had the following components: 25 mM Tris.HCl (pH 8.0), 137 mM NaCl, 2.7 mM KCl, 1 mM MgCl2, 1 mg/mL BSA (SIGMA Cat. #A3803 with reduced fatty acid content), 0.3 mM peptide 1b, 2, or 3a, and 1.5 μM HDAC8. […] An enzymatic reaction was initiated by the addition of HDAC8 at room temperature and was allowed to be incubated at room temperature for 2 hours before being quenched with the following stop solution: 1.0 M HCl and 0.16 M acetic acid. The quenched assay solutions were directly injected into a reversed-phase HPLC C18 column (100 Å, 0.46×25 cm), eluting with the following gradients of ddH2O containing 0.05% (v/v) trifluoroacetic acid (mobile phase A) and acetonitrile containing 0.05% (v/v) trifluoroacetic acid (mobile phase B): linear increase from 0% B to 35% B (for the assay with peptide 2 or 1b) or 40% B (for the assay with peptide 3a or […]) from 0-40 minutes (1 mL/min), and UV monitoring at 214 nm. […] The enzymatically formed peptide 1c was confirmed by its comigration with the chemically synthesized authentic sample and by MALDI-TOF mass spectrometric analysis, and was quantified by HPLC peak integration and comparison with that of synthetic authentic sample.

[5] = biological target: T4, SIRT3 (Homo sapiens, UniProt Q9NTG7); experiment: HPLC-based SIRT3 inhibition assay with purified SIRT3; assay type: biochemical; conditions: SIRT3 vs SIRT1
T4 construct: purchased
T4 sequence (Q9NTG7 1-399): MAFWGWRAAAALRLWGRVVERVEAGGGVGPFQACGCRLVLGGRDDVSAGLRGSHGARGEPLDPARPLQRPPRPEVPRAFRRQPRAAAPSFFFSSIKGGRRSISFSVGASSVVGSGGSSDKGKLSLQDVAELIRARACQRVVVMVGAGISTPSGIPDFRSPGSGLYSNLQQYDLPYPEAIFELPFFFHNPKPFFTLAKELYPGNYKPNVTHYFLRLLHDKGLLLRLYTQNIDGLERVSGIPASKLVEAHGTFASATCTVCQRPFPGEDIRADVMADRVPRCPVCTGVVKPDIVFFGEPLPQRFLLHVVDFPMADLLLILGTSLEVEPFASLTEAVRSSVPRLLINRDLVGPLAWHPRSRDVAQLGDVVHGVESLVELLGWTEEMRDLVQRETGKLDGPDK
Protocol: as §1

[6] = test system: SIRT1, SIRT2, and SIRT3; experiment: Dethioacetylation of inhibitor peptides under the sirtuin inhibition assay conditions; assay type: biochemical, human; conditions: same assay conditions as SIRT1/SIRT2/SIRT3 inhibition assays
Protocol: Inhibition assays with purified SIRT1, SIRT2, and SIRT3. GST-SIRT1 that could be produced in a laboratory was used for the SIRT1 inhibition assay. SIRT2 and SIRT3 are obtainable from commercial sources known to those skilled in the art. Consistent HPLC-based assay procedures were used for the inhibition assays with SIRT1, SIRT2, and SIRT3. In brief, an inhibition assay solution had the following components: 25 mM (or 50 mM for SIRT2 assay) Tris.HCl (pH 8.0) 137 mM NaCl, 2.7 mM KCl, 1 mM MgCl2, 1 mg/mL BSA (SIGMA Cat. #A3803 with reduced fatty acid content, for SIRT2 assay only), 0.5 mM β-NAD^+, 0.3 mM peptide substrate (peptide 1b for SIRT1 and SIRT2 assays; peptide 3b for SIRT3 assay), an inhibitor (peptide 1a, 2, or 3a) with varied concentrations including 0, and an enzyme (GST-SIRT1, 0.15 μM; SIRT2, 0.3 μM; or SIRT3, 2.0 μM). […] An enzymatic reaction was initiated by the addition of an enzyme at 37° C. and was allowed to be incubated at 37° C.: 10 minutes as follows: for SIRT1 assay, or 60 minutes for SIRT2 and SIRT3 assays. Incubation was quenched at the indicated time with the following stop solution: 100 mM HCl and 0.16 M acetic acid. The conversion of the limiting substrate to the product was maintained at ≦12%. The quenched assay solutions were directly injected into a reversed-phase HPLC C18 column (100 Å, 0.46×25 cm), eluting with the following gradients of ddH2O containing 0.05% (v/v) trifluoroacetic acid (mobile phase A) and acetonitrile containing 0.05% (v/v) trifluoroacetic acid (mobile phase B): linear increase from 0% B to 35% B (for SIRT1 assay) or 40% B (for SIRT2 and SIRT3 assays) from 0-40 minutes (1 mL/min), and UV monitoring at 214 nm. The enzymatic deacetylation products (peptide 1c in SIRT1 and SIRT2 assays; peptide 3c in SIRT3 assay) were confirmed by their comigration with the chemically synthesized authentic samples and by MALDI-TOF mass spectrometric analysis, and were quantified by HPLC peak integration and comparison with those of synthetic authentic samples. […] All peptide stock solutions were prepared in ddH2O. […]

CC(=S)NCCCC[C@H](NC(=O)OCC1c2ccccc2-c2ccccc21)C(=O)O [N^α-Fmoc-N^ε-thioacetyl-lysine, L-N^α-Fmoc-N^ε-thioacetyl-lysine]
IC25 for SIRT1 ([1]; concentration to achieve 25% inhibition): 2,000 uM
IC25 SIRT1 ([1]; concentration to achieve 25% inhibition, 0.5 mM β-NAD+, 0.3 mM peptide substrate): 2,000 (IC25) μM

CC(=O)N[C@@H](CCCCNC(C)=S)C(=O)O [N^α-acetyl-N^ε-thioacetyl-lysine, L-N^α-acetyl-N^ε-thioacetyl-lysine]
SIRT1 inhibition at 2 mM [1]: No inhibition
SIRT1 inhibition at 2 mM ([1]; listed as L-N^α-acetyl-N^ε-thioacetyl-lysine): did not exhibit any SIRT1 inhibition

CSCC[C@H](NC(=O)[C@H](CC(C)C)NC(=O)[C@H](CCCCNC(C)=S)NC(=O)[C@H](CCCCN)NC(=O)[C@H](Cc1c[nH]cn1)NC(=O)[C@H](CCCNC(=N)N)NC(=O)[C@H](CO)NC(=O)[C@@H](NC(=O)[C@H](CO)NC(=O)[C@H](CCC(N)=O)NC(=O)CNC(=O)[C@H](CCCCN)NC(=O)[C@@H](N)CCCCN)[C@@H](C)O)C(=O)N[C@@H](Cc1ccccc1)C(=O)N[C@@H](CCCCN)C(=O)N[C@H](C(=O)N[C@@H](CCC(=O)O)C(=O)NCC(=O)O)[C@@H](C)O [Peptide 1a]
inhibition potency against SIRT2 relative to that against SIRT1 [2]: comparable inhibition potency
de(thio)acetylation by HDAC8 (previously demonstrated) [3]: comparably de(thio)acetylated by HDAC8
HDAC8 (sensitive / resistant to HDAC8) [4]: +^c
inhibition potency weaker against SIRT3 than against SIRT1 [5]: approximately 35 fold
formation of dethioacetylated peptide under sirtuin inhibition assay conditions [6]: did not give rise to detectable formation

CSCC[C@H](NC(=O)[C@H](CC(C)C)NC(=O)[C@H](CCCCNC(C)=S)NC(=O)[C@H](CCCCN)NC(=O)[C@@H](N)Cc1c[nH]cn1)C(=O)O [Peptide 4] (H-HK[Lys(Thioacetyl)]LM-OH)
decrease in SIRT1 inhibition potency following truncation of peptide 1a ([1]; vs peptide 1a): approximately 6 fold

CSCC[C@H](NC(=O)[C@H](CC(C)C)NC(=O)[C@H](CCCCNC(C)=S)NC(=O)[C@H](CCCCN)NC(=O)[C@@H](N)Cc1cnc[nH]1)C(=O)O [Peptide 4] (H-HK[Lys(Thioacetyl)]LM-OH)
IC50 [1]: 10.4 ± 0.3 µM
